Patent US8153797B2, “Chromen-2-one derivatives and their use as monoamine neurotransmitter re-uptake inhibitors” (Neurosearch A/S, priority 2006, dated 2012)
Structures can show the parent of a compound that is named as a salt. Where two headings read alike, the source gives them in different places.

How the values were obtained:
[1] = biological target: T1, reuptake of dopamine (DA) in synaptosomes (Rattus norvegicus, UniProt P23977); experiment: Inhibition of dopamine reuptake in synaptosomes; type: biochemical
T1 construct: in synaptosomes as described in WO 97/16451; from tissue; method in WO 97/16451
T1 sequence (P23977 whole entry): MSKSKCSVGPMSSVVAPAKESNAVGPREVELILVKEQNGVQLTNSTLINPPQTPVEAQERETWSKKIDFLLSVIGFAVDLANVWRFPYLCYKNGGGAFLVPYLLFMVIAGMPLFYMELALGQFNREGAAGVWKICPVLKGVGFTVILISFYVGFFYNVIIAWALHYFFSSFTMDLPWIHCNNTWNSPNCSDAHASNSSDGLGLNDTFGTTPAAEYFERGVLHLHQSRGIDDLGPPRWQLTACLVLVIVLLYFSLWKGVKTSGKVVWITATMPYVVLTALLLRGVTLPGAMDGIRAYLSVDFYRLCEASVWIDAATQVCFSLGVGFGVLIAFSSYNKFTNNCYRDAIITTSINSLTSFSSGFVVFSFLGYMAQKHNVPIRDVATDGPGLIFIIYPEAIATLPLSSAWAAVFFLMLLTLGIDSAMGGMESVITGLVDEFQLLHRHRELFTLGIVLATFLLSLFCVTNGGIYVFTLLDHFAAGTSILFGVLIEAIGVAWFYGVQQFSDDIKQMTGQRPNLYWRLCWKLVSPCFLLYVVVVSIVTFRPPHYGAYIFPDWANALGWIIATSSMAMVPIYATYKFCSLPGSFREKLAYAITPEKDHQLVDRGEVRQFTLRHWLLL

[2] = biological target: T2, reuptake of noradrenaline (NA) in synaptosomes (Rattus norvegicus, UniProt Q63380); experiment: Inhibition of noradrenaline reuptake in synaptosomes; type: biochemical
T2 construct: in synaptosomes as described in WO 97/16451; from tissue; method in WO 97/16451
T2 sequence (Q63380 1-617): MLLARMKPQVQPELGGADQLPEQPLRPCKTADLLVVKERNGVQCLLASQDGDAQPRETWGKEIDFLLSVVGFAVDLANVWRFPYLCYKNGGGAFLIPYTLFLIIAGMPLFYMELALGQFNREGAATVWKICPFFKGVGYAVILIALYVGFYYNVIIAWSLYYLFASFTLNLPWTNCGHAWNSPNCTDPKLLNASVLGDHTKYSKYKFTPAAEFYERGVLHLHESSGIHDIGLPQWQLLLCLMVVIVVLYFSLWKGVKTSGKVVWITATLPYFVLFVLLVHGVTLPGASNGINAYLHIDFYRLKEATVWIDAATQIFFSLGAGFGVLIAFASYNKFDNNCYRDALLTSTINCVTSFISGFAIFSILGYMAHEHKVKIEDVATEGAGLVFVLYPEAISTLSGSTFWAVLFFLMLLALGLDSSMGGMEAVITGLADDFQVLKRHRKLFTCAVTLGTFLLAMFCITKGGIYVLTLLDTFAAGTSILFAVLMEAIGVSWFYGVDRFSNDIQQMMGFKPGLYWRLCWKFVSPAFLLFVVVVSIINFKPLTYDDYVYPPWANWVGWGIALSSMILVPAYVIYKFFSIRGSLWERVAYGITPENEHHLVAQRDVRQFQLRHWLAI

[3] = biological target: T3, reuptake of serotonine (5-HT) in synaptosomes (Rattus norvegicus, UniProt P31652); experiment: Inhibition of serotonin reuptake in synaptosomes; type: biochemical
T3 construct: in synaptosomes as described in WO 97/16451; from tissue; method in WO 97/16451
T3 sequence (P31652 whole entry): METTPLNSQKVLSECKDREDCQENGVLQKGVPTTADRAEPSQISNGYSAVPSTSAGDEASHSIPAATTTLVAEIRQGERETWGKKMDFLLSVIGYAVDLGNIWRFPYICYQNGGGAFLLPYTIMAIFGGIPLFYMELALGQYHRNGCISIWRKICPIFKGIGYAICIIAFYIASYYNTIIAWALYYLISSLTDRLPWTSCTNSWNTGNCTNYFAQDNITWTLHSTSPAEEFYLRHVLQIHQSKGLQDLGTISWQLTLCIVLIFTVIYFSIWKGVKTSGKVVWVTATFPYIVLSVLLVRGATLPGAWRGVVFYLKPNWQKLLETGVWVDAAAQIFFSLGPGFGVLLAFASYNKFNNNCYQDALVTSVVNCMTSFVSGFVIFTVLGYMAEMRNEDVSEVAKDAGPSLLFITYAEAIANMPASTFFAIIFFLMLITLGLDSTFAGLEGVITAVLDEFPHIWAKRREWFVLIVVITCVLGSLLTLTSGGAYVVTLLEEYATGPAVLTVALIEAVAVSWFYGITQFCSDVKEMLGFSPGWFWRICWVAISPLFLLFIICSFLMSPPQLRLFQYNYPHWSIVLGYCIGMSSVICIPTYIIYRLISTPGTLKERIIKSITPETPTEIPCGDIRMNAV
Experimental: A number of compounds were tested for their ability to inhibit the reuptake of the monoamine neurotransmitters dopamine (DA) noradrenaline (NA) and serotonine (5-HT) in synaptosomes as described in WO 97/16451.
The test values are given as IC50 (the concentration (μM) of the test substance which inhibits the specific binding of ^3H-DA, ^3H-NA, or ^3H-5-HT by 50%).

[4] = 3H-5-HT, synaptosomes, read-out: 5-HT-uptake IC50

| Structure (SMILES) | melting point | IC50 ([1]; 3H-DA, synaptosomes, read-out: DA-uptake IC50) | IC50 ([2]; 3H-NA, synaptosomes, read-out: NA-uptake IC50) | IC50 [3, 4] | IC50 [1] | IC50 [2] | IC50 [3] |
| --- | --- | --- | --- | --- | --- | --- | --- |
| CN1[C@@H]2C=C[C@H]1C[C@H](Oc1ccc3ccc(=O)oc3c1)C2 (as salt: hydrochloric acid salt) [First compound of Method 4B, exo-7-(8-Methyl-8-aza-bicyclo[3.2.1]oct-6-en-3-yloxy)-chromen-2-one hydrochloric acid salt] | > 275 °C | – | – | – | – | – | – |
| CN1[C@@H]2CC[C@H]1C[C@H](Oc1ccc3cc(Br)c(=O)oc3c1)C2 [First compound of Method 2B, exo-3-Bromo-7-(8-methyl-8-aza-bicyclo[3.2.1]oct-3-yloxy)-chromen-2-one hydrochloric acid salt] | – | 44 nM | 17 nM | 1.2 nM | – | – | – |
| CN1[C@@H]2C=C[C@H]1C[C@H](Oc1ccc3ccc(=O)oc3c1)C2 [First compound of Method 4B, exo-7-(8-Methyl-8-aza-bicyclo[3.2.1]oct-6-en-3-yloxy)-chromen-2-one hydrochloric acid salt] | – | – | – | – | 700 nM | 720 nM | 36 nM |
| O=c1oc2cc(O[C@@H]3C[C@H]4CC[C@@H](C3)N4)ccc2cc1Cl [Second last compound of Method 2B, exo-7-(8-Aza-bicyclo[3.2.1]oct-3-yloxy)-3-chloro-chromen-2-one hydrochloric acid salt] | – | – | – | 0.59 nM | 54 nM | 14 nM | – |
